Experimental findings from patent US6352993B1, “Pyrimidine derivatives and processes for the preparation thereof” (Yuhan Corporation, priority 1997, dated 2002) are described below.

The test system of assay [1] is gastric secretion in pylorus-ligated Sprague-Dawly rats. The experiment in a line: Inhibition of gastric secretion (pylorus-ligated rats, Shay method). Format: in vivo. Conditions: 20 mg/kg intraduodenally, 5 hours; for Relative conc.: gastric juice acidity relative to omeprazole, equation (II); for Relative volume: gastric juice amount relative to omeprazole, equation (I); for Relative Acid Output: total acid output relative to omeprazole, equation (III). As for the experimental part: Test 2: Inhibition of gastric secretion
In accordance with the method disclosed in Shay, H., et al., Gastroenterology 5 43-61(1945), Test 2 was carried out.
Sprague-Dawly rats having a body weight of 170±10 g were divided into 3 groups(n=5) and deprived of food for 24 hours before the experiment with free access to water. Under ether anesthesia, the abdomen was incised, and the pylorus was ligated. As a comparative group, Group 1 was administered intraduodenally in a volume of 0.5 ml/200 g of 30% aqueous polyethylene glycol 400 solution. Groups 2 and 3 were administered intraduodenally with the compound of Example and omeprazole, respectively, each of which was suspended in 30% aqueous polyethylene glycol 400 solution at a concentration of 20 mg/kg. After closing the abdominal cavity, the rats were placed for 5 hours and then killed by cervical dislocation. The stomach was extracted to obtain gastric juice.
Tne gastric juice was centrifuged at 1,000 g to remove precipitates. The amount and acidity of the gastric juice were measured. Relative volumes, relative acid concentrations and relative acid outputs of the test compounds were calculated from equations(I), (II) and (III) and the results are shown in Table 2.
Relative volume=(the average amount of gastric juice of Group 1—the average amount of gastric juice of Group 2)/(the average amount of gastric juice of Group 1−the average amount of gastric juice of Group 3)—(I)
Relative acid concerntration=(the average acidity of Group 1—the average acidity of Group 2)/(the average acidity of Group 1—the average acidity of Group 3)—(II)
Relative acid output (the total amount of acid output of Group 1—the total amount of acid output of Group 2)/(the total amount of acid output of Group 1—the total amount of acid output of Group 3)—(m)

In assay [2] the target is proton pump (H+/K+-ATPase) (UniProt P19156). The experiment in a line: Inhibition of proton pump (H+/K+-ATPase activity). Format: biochemical. Set-up: Effect ratio. Conditions: relative to omeprazole IC50. As for the experimental part:
(§1) Test 1: Inhibition of proton pump (H^+/K^+-ATPase activity)
(§2) A proton pump enzyme was prepared by the same method as in the Experiment 1-1 of WO 94/14795. Further, the inhibitory effect of proton pump activity was measured by the same method as in Experiment 1-2 of WO 94/14795.
(§3) Namely, the proton pump activity stimulated by Mg^++ was used as a negative comparative group, and the activity stimulated by Mg^++ and K^+ was used as a positive comparative group. The comparative compound was omeprazole.
(§4) Test tubes were divided into 4 groups: Group 1 as negative comparative group(n=3), Group 2 as positive comparative group(n=3), Group 3(n=5×2) to be administered with the compound of the present invention and Group 4(n=5×2) to be administered with the comparative compound.
(§5) The inhibitory effects of Groups 3 and 4 on proton pump activity were measured by employing the compound prepared in Examples and omeprazole, respectively, each of which was dissolved in dimethylsulfoxide at 5 different concentrations.
(§6) To each of Groups 1, 2, 3 and 4 were added 100 μl of magnesium chloride(40 mM) dissolved in 40 mM Tris-HCI buffer(ph 6.0) and 100 μg of the enzyme source. The 50 μl of potassium chloride(50 mM) and 50 μl of ammonium chloride(6 mM) dissolved in 40 mM Tris-HCl buffer(pH 6.0) were added to all groups except for group 1.
(§7) 10 μl of dimethylsulfoxide was added to each of Groups 1 and 2; and to Group 3 was added 10 μl of dimethylsulfoxide solution prepared by dissolving compound of EXAMPLE at 5 different concentration(n=5×2). To Group 4, 10 μl of the solution prepared by dissolving omeprazole in dimethylsulfoxide at 5 different concentration(37.6, 21.4, 12.2, 7.0 and 4.0 μM) was added(n=5×2). 40 mM Tris-HCI buffer(pH=6.0) was added thereto so as to make the total volume 400 μl.
(§8) Thereafter, the test tube of each Group were placed at 37° C. for 30 minutes for the preincubation. 100 μl ATP solution (6.6 mM) was added until the reaction volume became 500 μl. After the reaction was carried out at 37° C. for 30 minutes, 25% cold trichloroacetic acid was added to terminate the enzyme reaction. The released inorganic phosphate was measured by an automatic analyzer(Express 550, coming).
(§9) The difference between Group 1 and Group 2 represents the proton pump activity activated by K^+ only. The IC50s of Group 3 and 4 were calculated from Litchfield-wilcoxon equation[see, e.g., J. Pharrnacol. Exp. Ther., 96, 99(1949)]. The concentrations of the test compounds inhibiting 50% of the proton pump activity are represented as IC50 in Table 1.

The target is the same in assay [3]. The experiment in a line: Inhibition of proton pump (H+/K+-ATPase activity). In kind it is biochemical. The arrangement: other: K+-stimulated proton pump activity, pH 6.0, 37°. Conditions: K+-stimulated proton pump activity, pH 6.0, 37° C., 30 minutes preincubation; read-out: IC50 (concentration inhibiting 50% of the proton pump activity). The procedure:
as §1, §2, §3, §4, §5, §6, §7, §8, §9

In the case of `Cc1c(CO)nc(Nc2ccccc2)nc1N1CCc2ccccc2C1C.Cl` (stereo not shown) [Example 32, 6-hydroxymethyl-5-methyl-2-phenylamino-4-(1-methyl-1,2,3,4-tetrahydroisoquinolin-2-yl)pyrimidine hydrochloride], in assay [1], the Relative conc. was found to be 0.47, the Relative volume stood at 0.84 and the “Relative Acid Output” value was found to be 0.77. In assay [2], the Effect ratio was 8.3. Also, the IC50 in assay [3] came out at 1.34 µM.

`CCCNc1nc(COC)c(C)c(N2CCc3ccccc3C2)n1.Cl` [Example 25, 6-methoxymethyl-5-methyl-2-(2-methylethylamino)-4-(1,2,3,4-tetrahydroisoquinolin-2-yl)pyrimidine hydrochloride]: in assay [1], the Relative conc. was 0.52, the Relative volume was determined as 1.00 and the “Relative Acid Output” value is reported as 0.86. Moreover, the Effect ratio in assay [2] is listed as 6.0. Moreover, the IC50 in assay [3] is 1.85 µM.

As to `Cc1csc(Nc2nc(C)c(C)c(N3CCc4ccccc4C3)n2)n1.Cl` [Example 23, 5,6-dimethyl-2-(4-methylthiazol-2-yl)amino-4-(1,2,3,4-tetrahydroisoquinolin-2-yl)pyrimidine hydrochloride], in assay [1], the Relative conc. came out at 1.34, the Relative volume worked out at 1.58 and the “Relative Acid Output” value was 1.23. Further, the Effect ratio in assay [2] is 25.8. For the same compound, in assay [3], the IC50 amounted to 0.43 µM.

Regarding `Cc1ccccc1Nc1nc(CO)c(C)c(N2CCc3ccccc3C2C)n1.Cl` (stereo not shown) [Example 34, 6-hydroxymethyl-5-methyl-2-(2-methylphenylamino)-4-(1-methyl-1,2,3,4-tetrahydroisoquinolin-2-yl)pyrimidine hydrochloride], in assay [1], the Relative conc. worked out at 0.45, the Relative volume is 0.81 and the “Relative Acid Output” value is given as 0.78. The Effect ratio in assay [2] came out at 25.8. Also, the IC50 in assay [3] was determined as 0.43 µM.

As for `Cc1nc(NCC(C)C)nc(N2CCc3ccccc3C2C)c1C` (stereo not shown) [Example 14, 5,6-dimethyl-2-isobutylamino-4-(1-methyl-1,2,3,4-tetrahydroisoquinolin-2-yl)pyrimidine], in assay [1], the Relative conc. is 0.41, the Relative volume was determined as 0.93 and the “Relative Acid Output” value came out at 0.79. For the same compound, the Effect ratio in assay [2] amounted to 5.2. Also, in assay [3], the IC50 was 2.15 µM.

With `Cc1csc(Nc2nc(C)c(C)c(N3CCc4ccccc4C3C)n2)n1.Cl` (stereo not shown) [Example 22, 5,6-dimethyl-2-(4-methylthiazol-2-yl)amino-4-(1-methyl-1,2,3,4-tetrahydroisoquinolin-2-yl)pyrimidine hydrochloride], in assay [1], the Relative conc. came out at 0.46, the Relative volume stood at 0.59 and the “Relative Acid Output” value amounted to 0.62. Besides, the Effect ratio in assay [2] amounted to 1.7. Moreover, the IC50 in assay [3] stood at 6.69 µM.

`COCc1nc(Nc2ccc(F)cc2C)nc(N2CCc3ccccc3C2)c1C.Cl` [Example 27, 6-methoxymethyl-5-methyl-2-(4-fluoro-2-methylphenylamino)-4-(1,2,3,4-tetrahydroisoquinolin-2-yl)pyrimidine hydrochloride]: in assay [1], the Relative conc. amounted to 0.68, the Relative volume is 0.99 and the “Relative Acid Output” value worked out at 0.90. For the same compound, the Effect ratio in assay [2] turned out to be 7.2. For the same compound, the IC50 in assay [3] is 1.55 µM.

Consider `COCc1nc(Nc2ccc(F)cc2)nc(N2CCc3ccccc3C2C)c1C.Cl` (stereo not shown) [Example 28, 6-methoxymethyl-5-methyl-2-(4-fluorophenylamino)-4-(1-methyl-1,2,3,4-tetrahydroisoquinolin-2-yl)pyrimidine hydrochloride], for which, in assay [1], the Relative conc. worked out at 0.60, the Relative volume was found to be 0.78 and the “Relative Acid Output” value was 0.78. Moreover, the Effect ratio in assay [2] is reported as 6.4. In addition, in assay [3], the IC50 turned out to be 1.74 µM.

In the case of `COCc1nc(Nc2ccc(F)cc2)nc(N2CCc3ccccc3C2)c1C.Cl` [Example 26, 6-methoxymethyl-5-methyl-2-(4-fluorophenylamino)-4-(1,2,3,4-tetrahydroisoquinolin-2-yl)pyrimidine hydrochloride], in assay [1], the Relative conc. is 0.64, the Relative volume is reported as 0.67 and the “Relative Acid Output” value worked out at 0.74. In addition, the Effect ratio in assay [2] is 4.3. For the same compound, the IC50 in assay [3] came out at 2.6 µM.

Turning to `COCCNc1nc(C)c(C)c(N2CCc3ccccc3C2)n1.Cl` [Example 5, 5,6-dimethyl-2-(2-methoxyethylamino)-4-(1,2,3,4-tetrahydroisoquinolin-2-yl)pyrimidine hydrochloride], in assay [1], the Relative conc. is reported as 0.18, the Relative volume stood at 0.45 and the “Relative Acid Output” value was 0.43. Moreover, the Effect ratio in assay [2] worked out at 1.6. Besides, the IC50 in assay [3] was 6.91 µM.

Take `COCc1nc(Nc2ccc(F)cc2C)nc(N2CCc3ccccc3C2C)c1C.Cl` (stereo not shown) [Example 29, 6-methoxymethyl-5-methyl-2-(2-methyl-4-fluorophenylamino)-4-(1-methyl-1,2,3,4-tetrahydroisoquinolin-2-yl)pyrimidine hydrochloride]: in assay [1], the Relative conc. is 0.81, the Relative volume was 0.78 and the “Relative Acid Output” value is recorded as 0.88. For the same compound, the Effect ratio in assay [2] worked out at 4.4. The IC50 in assay [3] turned out to be 2.55 µM.
